Experiments:
[1] = tested on: SK-OV-3 human ovarian carcinoma cell line; test: WST-1 cell viability assay, SK-OV-3; format: cell-based; conditions: Homo sapiens, SK-OV-3; WST-1, 24 h treatment, mean ± S.D of three independent experiments
Excerpt: (§1) The synthesized compounds were screened for their cytotoxicity on five cancer cell lines, namely SK-OV-3, MCF-7, MDA-MB-231, HCT-116 and RKO, using a WST colorimetric assay. The assay principle is based upon the reduction of the tetrazolium salt WST-1 to formazan by cellular mitochondrial dehydrogenases present in viable cells. […] Among the latter compounds the benzohydrazide derivative 9a emerged with the lowest IC50 in this study against MCF-7 cells compared to 5-FU. […] Based on the fact that 9a had less cytotoxic effects on normal breast epithelial cells it was subjected to further studies.
(§2) The following cell lines were used for the screening stage, obtained from the American Type Culture Collection (ATCC, Manassas, VA, USA); SK-OV-3 (HTB-77), MCF-12A (ATCC CRL-10782), MDA-MB-231 (ATCC HTB-26), HCT-116 (CCL-247), RKO (CRL-2577) and sub-culturing of the above cell lines was conducted in 75 cm^2 flasks. The old culture media was removed and discarded after assessing the confluency of the cells and the cells were rinsed with 2–3 mL diluted trypsin (1×) (trypsin/EDTA solution consists of 0.025% trypsin and 0.01% EDTA in PBS), for about 5 minutes for complete detachment. The cells were observed under the inverted microscope until the cell layer is completely dispersed. 75 cm^2 flasks were prepared and 16 mL of DMEM media for SK-OV-3, MCF-7, MDA-MB-231, (DMEM 4500 mg glucose) and RPMI media for HCT-116 were added to each flask. The cells were aspirated gently and added to the flasks. DMEM 4500 mg/L high glucose with 10% FBS, 5% streptomycin and penicillin, RPMI 1640 (prepared by adding 5% heat-inactivated FCS and 2 mm glutamine) were used. DMEM was also used for MCF-12A cells with the addition of human epidermal growth factor 20 ng/mL, insulin 0.01 mg/mL and hydrocortisone 500 ng/mL.
(§3) The synthesized compounds were screened for their anti-proliferative activity using 5-FU (F6627-1G, Sigma-Aldrich, St. Louis, MO, USA) as reference compound. A concentration of 0.4% DMSO was used in all experiment after ensuring 100% viability of the cell lines with this concentration. A 25 mM stock concentration of all compounds was prepared for further studies and analysis.
(§4) Cells were trypsinized and placed in a 15 mL Falcon tube, the cells were centrifuged for 3 min at 1000 rpm. Trypsin is decanted using a sterile pipette and then the pellet is loosened by flicking the tube few times then 5–10 mL warm DMEM or RPMI were added to the Falcon tube and the pellet is resuspended. Cell count was done next by taking 10 μL of the suspension into the cell counting slide and read under 10× cells/mL. A cell stock of 50,000 cells/mL was prepared for the 96 wells. Cells (100 μL) were added to each well using a sterile pipette each time to ensure consistency. The experiment was planned ahead of time using excel sheet, 3–6 wells were reserved as blank media while 3–6 wells for vehicle (DMSO). The plate was incubated for 24 h for compound treatment step. DMEM media was used to prepare different dilutions of the compounds. The old DMEM media was removed from the wells using sterile pipette in the hood and the media was replaced with 100 μL media with each compound. The plate was incubated for 24 h. After 24 h incubation, WST-1 reagent (Sigma) was added to each well and then the plate was incubated for 1 h before measuring the absorbance using VICTOR™ Multilabel Plate Reader (Perkin Elmer, Beaconsfield, UK). The absorbance of the colored solution can be quantified by measuring at a certain wavelength (usually between 500–600 nm), in this experiment the first reading was conducted at 540 nm and the second reading at 690 nm for the reference wavelength. The percentage of cell viability was determined as the ratio of the absorbance of the sample vs the control. Three independent experiments were performed. […] 5-Florouracil (Sigma-Aldrich, F6627-1G) was used as reference standard.

[2] = tested on: MCF-7 human breast adenocarcinoma cell line; test: WST-1 cell viability assay, MCF-7; format: cell-based; conditions: Homo sapiens, MCF7, 24 h, WST-1, 24 h treatment, mean ± S.D of three independent experiments
Excerpt: as §1, §2, §3, §4

[3] = tested on: MDA-MB-231 human breast adenocarcinoma cell line; test: WST-1 cell viability assay, MDA-MB-231; format: cell-based; conditions: Homo sapiens, MDA-MB-231; WST-1, 24 h treatment, mean ± S.D of three independent experiments
Excerpt: as §1, §2, §3, §4

[4] = tested on: HCT-116 human colon carcinoma cell line; test: WST-1 cell viability assay, HCT-116; format: cell-based; conditions: Homo sapiens, HCT-116; WST-1, 24 h treatment, mean ± S.D of three independent experiments
Excerpt: as §1, §2, §3, §4

[5] = tested on: RKO human colon carcinoma cell line; test: WST-1 cell viability assay, RKO; format: cell-based; conditions: Homo sapiens, Colon carcinoma cell; WST-1, 24 h treatment, mean ± S.D of three independent experiments
Excerpt: as §1, §2, §3, §4

IC50 [1] [µM] | IC50 [2] [µM] | IC50 [3] [µM] | IC50 [4] [µM] | IC50 [5] [µM] | melting point [°C] | SMILES
26.2 ± 0.95 | > 50 | > 50 | 33.9 ± 0.87 | > 50 | 161 to 163 | COc1ccc(-c2cc(-c3ccc(OC)c(OC)c3)c(C#N)c(OCC(=O)n3nc(C)cc3C)n2)cc1OC [Compound 11, 4,6-Bis(3,4-dimethoxyphenyl)-2-(2-(3,5-dimethyl-1H-pyrazol-1-yl)-2-oxoethoxy)pyridine-3-carbonitrile]
20.3 ± 1.72 | > 50 | > 50 | 40.4 ± 1.76 | > 50 | 189 to 190 | COc1ccc(-c2cc(-c3ccc(OC)c(OC)c3)c(C#N)c(OCC(=O)N3N=C(C)CC3=O)n2)cc1OC [Compound 12, 4,6-bis(3,4-Dimethoxyphenyl)-2-(2-(3-methyl-5-oxo-4,5-dihydro-1H-pyrazol-1-yl)-2-oxoethoxy)pyridine-3-carbonitrile]
> 50 | > 50 | > 50 | 36.3 ± 1.71 | > 50 | 184 to 186 | COC(=O)c1c(SC)nn(C(=O)COc2nc(-c3ccc(OC)c(OC)c3)cc(-c3ccc(OC)c(OC)c3)c2C#N)c1N [Compound 13a, Methyl 5-amino-1-{[(3-cyano-4,6-bis(3,4-dimethoxyphenyl)pyridin-2-yl)oxy]acetyl}-3-(methylsulfanyl)-1H-pyrazole-4-carboxylate]
> 50 | > 50 | > 50 | 30.1 ± 0.76 | > 50 | 202 to 204 | COc1ccc(-c2cc(-c3ccc(OC)c(OC)c3)c(C#N)c(OCC(=O)n3nc(SC)c(C#N)c3N)n2)cc1OC [Compound 13b, 2-{2-[5-Amino-4-cyano-3-(methylsulfanyl)-1H-pyrazol-1-yl]-2-oxoethoxy}-4,6-bis(3,4-dimethoxyphenyl)-pyridine-3-carbonitrile]

— PMC6274259, “New 3-Cyano-2-Substituted Pyridines Induce Apoptosis in MCF 7 Breast Cancer Cells” (Molecules, 2016)
